Data set [1] concerns NMDA-insult to the retina. The data set is described as follows: In vivo rat retinal toxicity model of NMDA-induced chemical stroke. The note with it: for long-term protection against NMDA-induced retinal ganglion cell death: 14-21 day post-insult, single dosing; for long-term protection against NMDA-induced retinal ganglion cell death / short-term protection against NMDA-insult / NMDA-induced loss of plasma membrane selectivity in NMDA-receptive neurons / NMDA-induced caspase activation / NMDA-induced mitochondrial-induced oxidative stress in the retina / NMDA-induced poly-(ADP)ribosylolation: rat retina; for short-term neuronal cell death signaling: compound administered simultaneously with NMDA-induced chemical stroke; for NMDA-induced loss of plasma membrane selectivity in NMDA-receptive neurons: out to 8 hrs post-insult, compound given simultaneously with NMDA; for NMDA-induced caspase activation / NMDA-induced mitochondrial-induced oxidative stress in the retina / NMDA-induced poly-(ADP)ribosylolation: short-term, 2-4 hrs post-NMDA-insult. The source says:
7. Blockade of PARP activity attenuates poly(ADP-ribosyl)ation but offers only partial neuroprotection against NMDA-induced cell death in the rat retina. (Goebel and Winkler, J Neuro Chem, 98:1732-1745, 2006) (NMDA-induced chemical stroke in vivo rat retinal neurotoxicity model).
In a test model, the retina was protected from NMDA-induced chemical stroke. […] The compositions of this invention are useful in a variety of clinical situations, most of which are characterized by neurological insult or cellular insult typified by mitochondrial damage. Without being bound by any particular theory, untreated mitochondrial damage is believed to lead to generation of free radical species. The compositions of this invention appear to avert or curtail oxidative stress in the retina following NMDA-insult by reducing mitochondrial originated free radical generation. Without being bound by any particular theory, such activity is believed to be significant in neuroprotection arising from the compositions of this invention.
Data establish that the compounds of the present invention protect the neural tissue (retina) against a strong NMDA-insult, with particular reference to R(7) (SEQ ID NO: 5), CR(7) (SEQ ID NO: 8) and C-s-s-CR(7) (“CR(7)” disclosed as SEQ ID NO: 8).

In data set [2] the test system is neurons in the spinal cord and in the brain. The data set is described as follows: Intrathecal and intraventricular injection of fluorescent-tagged peptides, distribution in spinal cord and brain. It counts as in vivo. The note with it: fluorescent-tagged peptide. The source says: Testing addressed intrathecal and intraventricular injection of fluorescent-tagged R(7) (SEQ ID NO: 5) and C-s-s-C-R(7) (“C-R(7)” disclosed as SEQ ID NO: 8). […] This approach is a workable option for quick delivery to prevent both stroke or traumatic injury to these tissues.

Data set [3] relates to HEK293 cells. The data set is described as follows: Cultured HEK293 cells pretreated with peptide, chemically induced excitotoxic challenge, mitochondrial readouts. It counts as cell-based. The note with it: for oxidative stress following excitotoxic challenge / stress-induced hyperpolarization of the mitochondrial membrane potentials: HEK293 cells pretreated with peptide, compared with sham-treated controls; for mitochondrial oxidative stress: further studies by the applicant's group, system not given.

Data set [4] relates to glaucoma. Kind of data set: Glaucoma patient treated with CR(7) eye drops (Example 9). It counts as in vivo, human. Particulars: Example 9, glaucoma patient, eye drops 1.25 μg per 20 μl drop, two drops morning and night, chronic. As for the experimental part:
A person presents with a complaint of blurry vision in their left eye for 1 week. Their IOP is above 21 mmHg. A diagnosis of glaucoma is made.
Effort is made to surgically reduce IOP. In post-surgical monitoring, IOP levels remain above normal excepted levels. To prevent retinal damage resulting from the prolonged exposure to elevated IOP. the patient is administered CR(7) (SEQ ID NO: 8) in the form of eye drops suspended in a corneal penetrating lipophilic suspension. Each 20 μl drop contains 1.25 μg of CR(7) (SEQ ID NO: 8) The total applied/treatment is 2.5 μg. Two drops are administered morning and two drops at night

Data set [5] concerns stroke. Kind of data set: Stroke patient treated i.v. with polyarginine (Examples 1, 2). It counts as in vivo, human. As for the experimental part: A person enters the emergency room and is diagnosed with an ischemic event involving the middle cerebral artery, with symptomatology onset being under 1 hr. Immediately, the patient was administered an i.v. supplemented with poly-arginine (R(7)C-s-s-C (“R(7)C” disclosed as SEQ ID NO: 12), 5 mg/kg) while blood supply to the restricted area is restored.
A person is revived following stoke in their home by EMS and is rushed to the nearest hospital 80 miles away. Upon arriving at the hospital it is determined that the patient is showing signs of weakness on their left side. […] They are immediately started an i.v. and administered poly arginine (R(7) (SEQ ID NO: 5))@ 4 mg/kg/hr over a period of 5 days to arrest post-stroke neuronal damage. The patient is monitored for recovery signs.

Data set [6] deals with retinal neurons. The data set is described as follows: Uptake of fluorescent-tagged peptides into retinal neurons after injection into the vitreal chamber. It counts as in vivo. Particulars: intravitreal, rat. As for the experimental part: Attention is drawn to the uptake into brain tissues under in vivo conditions Fluorescent-tagged R(7) (SEQ ID NO: 5) and C-s-s-CR(7) (“CR(7)” disclosed as SEQ ID NO: 8) were injected into the vitreal chamber of a rat eyes and analyzed for specific uptake into retinal neurons at multiple time points post-injection. […] At longer time points (2-4 hrs post injection) the accumulation of the labeled peptides accumulated within the cytoplasm of the majority of neurons in the inner half of the retina with preferential accumulations being localized to small membrane-bound organelles surrounding the nucleus of both ganglion cells and amacrine cells as well as in exiting ganglion cell axons.

Data set [7] concerns spinal cord injury. The data set is described as follows: Spinal cord injury patient treated i.v. with polyarginine (Example 8). It counts as in vivo, human. Particulars: Example 8, spinal cord injury patient, i.v. 0.15 mg/kg every other day for 30 days. As for the experimental part:
A person presents with a spinal cord injury following an automobile accident. The subject is conscious but unable to move their legs. […] A Th(11)-L(2) laminectomy is performed along with retrieval of foreign bodies and dura repair. Upon admission the patient is administered an i.v. containing R(7)C-s-s-C (“R(7)C” disclosed as SEQ ID NO: 12) peptide at 0.15 mg/kg.

For data set [8], the system named is Traumatic Brain Injury. The data set is described as follows: TBI patient treated i.v. with polyarginine (Example 3). Format: in vivo, human. The note with it: Example 3, severe concussion patient, i.v. 0.05 mg/kg, 3-5 days. The procedure:
A high school football player is rushed to the emergency room of a local hospital suffering from a severe concussion following a helmet to helmet impact with an opposing player. The patient is initially unconscious on the field for over 20 min. EMS personnel arrived to find the patient responding to stimuli, but completely disoriented and unable to coordinate muscle movement, articulate speech or focus eye movements. Upon arriving at the ER, the patient is administered an i.v. containing R(7)C-s-s-C (“R(7)C” disclosed as SEQ ID NO: 12) peptide at 0.05 mg/kg. Delivery of the peptide continued until brain swelling resulting from the impact returns to normal state (3-5 days). Without being bound by any particular theory, the therapeutic is to arrest neuronal cell death resulting from these documented post-traumatic effects.

Setting [9] is: Example 2, post-stroke patient, i.v. 4 mg/kg/hr over 5 days, observed over the next 30 days.

Where no end group is shown, it is not given here.

With “d-CdR(7): d-isomer of CR(7) (SEQ ID NO: 13) (CRRRRRRR; D-amino acids; MOD_RES (1)..(7) Residues are D configuration)”, in data set [1], the “long-term protection against NMDA-induced retinal ganglion cell death” value (from here on “long-term protection”) was “full short- and long-term neuroprotection”; the “short-term protection against NMDA-insult” value (“short-term protection” for short) was “full short- and long-term neuroprotection”.
Turning to “fluorescent-tagged CR(7): fluorescent-tagged CR(7) (SEQ ID NO: 8) (CRRRRRRR; also: fluorescent tag, position not given here)”, in data set [2], the “accumulation in neurons of spinal cord and brain” value was “Preferential accumulation was noted in the neurons located within the hippocampus and cerebral cortex”; the “crossing of the pia matter glial barrier” value is on record as “readily crosses the pia matter glial barrier”.
Regarding `N=C(N)NCCCC(NC(=O)[C@H](CCCNC(=N)N)NC(=O)C(N)CSSC[C@H](N)C(=O)O)C(=O)N[C@@H](CCCNC(=N)N)C(=O)NC(CCCNC(=N)N)C(=O)N[C@@H](CCCNC(=N)N)C(=O)NC(CCCNC(=N)N)C(=O)N[C@@H](CCCNC(=N)N)C(N)=O` (stereo partly shown) [C-s-s-CR(7), C-s-s-C-R-R-R-R-R-R-R], in data set [3], the “oxidative stress following excitotoxic challenge” value is listed as “significant attenuation”, the “stress-induced hyperpolarization of the mitochondrial membrane potentials” value (“stress-induced hyperpolarization” for short) is “significant attenuation” and the mitochondrial oxidative stress entry is recorded as “significantly prevented”. In addition, in data set [1], the “long-term protection” value is “not significantly different from results obtained from untreated or sham-treated control retinas”, the “short-term neuronal cell death signaling” value is reported as “block”, the “NMDA-induced loss of plasma membrane selectivity in NMDA-receptive neurons” value was “blocked” and the NMDA-induced caspase activation result was “fully block”. Also, in data set [1], the “NMDA-induced mitochondrial-induced oxidative stress in the retina” value is “fully block” and the “NMDA-induced poly-(ADP)ribosylolation” value is recorded as “fully block”.
Take “d-C-s-s-dCdR(7): d-isomer of C-s-s-CR(7) (CRRRRRRR; D-amino acids, disulfide-linked; MOD_RES (1)..(7) Residues are D configuration)”: in data set [1], the “long-term protection” value was “full short- and long-term neuroprotection”; the “short-term protection” value was “full short- and long-term neuroprotection”.
For the molecule C-R-R-R-R-R-R-R (CRRRRRRR) [CR(7)], in data set [3], the “oxidative stress following excitotoxic challenge” value was “significant attenuation”, the “stress-induced hyperpolarization” value was “significant attenuation” and the mitochondrial oxidative stress entry is given as “significantly prevented”. In data set [1], the “long-term protection” value is “not significantly different from results obtained from untreated or sham-treated control retinas”, the “short-term neuronal cell death signaling” value is “block”, the “NMDA-induced loss of plasma membrane selectivity in NMDA-receptive neurons” value was “blocked” and the NMDA-induced caspase activation result was “fully block”. Further, in data set [1], the “NMDA-induced mitochondrial-induced oxidative stress in the retina” value is on record as “fully block” and the “NMDA-induced poly-(ADP)ribosylolation” value is listed as “fully block”. In addition, in data set [1] (general statement, retina, NMDA-insult), the neuroprotection result is recorded as “effective when the peptide is made with either l- or d-amino acids”. Besides, the “progression of neuronal cell death” value in data set [4] was “no progression of neuronal cell death is detected”.
For RRRRRRR [R(7)], in data set [3], the “oxidative stress following excitotoxic challenge” value is “significant attenuation”, the “stress-induced hyperpolarization” value is recorded as “significant attenuation” and the mitochondrial oxidative stress entry was “significantly prevented”. Further, in data set [5] (setting [9]), the “muscle tone and limb recovery” value is “increased muscle tone on the left side”; the speech pattern recovery entry is on record as “Improvement in their speech pattern”. Moreover, in data set [1], the “long-term protection” value is listed as “less effective”, the “short-term neuronal cell death signaling” value is listed as “block”, the “NMDA-induced loss of plasma membrane selectivity in NMDA-receptive neurons” value is given as “blocked” and the “short-term protection” value is listed as “full short-term protection”. In data set [1], the NMDA-induced caspase activation result is reported as “fully block”, the “NMDA-induced mitochondrial-induced oxidative stress in the retina” value is listed as “fully block” and the “NMDA-induced poly-(ADP)ribosylolation” value is on record as “fully block”.
For the molecule “R(7)-C: 7 arginine peptide with C-terminus cysteine (SEQ ID NO: 12) (RRRRRRRC; MOD_RES (1)..(7) Residues may be D or L configuration)”, in data set [1], the “long-term protection” value is “both short and long-term protection”; the “short-term protection” value is “both short and long-term protection”.
With “Fluorescent-tagged R(7): Fluorescent-tagged R(7) (SEQ ID NO: 5) (RRRRRRR; also: fluorescent tag, position not given here)”, the “accumulation in retinal neurons and glia cells of ganglion and inner nuclear layers” value in data set [6] (fluorescent-tagged peptide, 30 min following injection) is “significant accumulations”. In addition, the “subcellular localisation of labeled peptide (double labeling)” value in data set [6] (2-4 hrs post injection) is on record as “majority of these labeled puncta colocalize with mitochondrial-specific markers”.
Regarding “R(7)C-s-s-C: R(7)C (SEQ ID NO: 12) with second cysteine linked by disulfide to the terminal cysteine (RRRRRRRC(Cys); also: extra cysteine disulfide-linked to Cys8)”, the “recovery of leg movement” value in data set [7] is “substantial ability to move their legs is returned”. Also, the “CT/MRI imaging of the affected region” value in data set [5] (Example 1, ischemic stroke patient, i.v. 5 mg/kg) is listed as “no signs of lesioning in the affected region”. Also, in data set [5] (Example 1, ischemic stroke patient, i.v. 5 mg/kg, onset under 1 hr), the “daily testing of cognitive and motor systems” value was “no deficits in physical or mental capacities”. The “TBI and post-concussion symptoms” value in data set [8] was “remains symptom free of TBI and post-concussion effects”.

The values are drawn from US10040822B2, “Neuroprotective composition and method of use” (Brown University, priority 2012, dated 2018).
